Assay results reported in US8669395B2, “Optically active 4-amino-3-(4-chlorophenyl)butanoic acid” (Sumitomo Chemical Company, Limited, priority 2009, dated 2014).

Columns and labels:
[1] = solubility in 100 g of water, Test Example 2; type: physicochemical
Description: About each of crystal A yielded according to the same process in Example 1, and crystal B yielded according to the same process in Comparative Example 1, the solubility thereof in 100 g of water was measured.

[2] = differential scanning calorimetry (DSC), Test Example 1; type: physicochemical; conditions: for Endothermic peak / Exothermic peak: DSC, 25 to 500° C., 10° C./minute, air-tightly closed SUS container
Description: About the DSC measurement, for example, a differential scanning calorimeter of an EXTER 6000 type, manufactured by SII Nano Technology Inc., is used to make it possible to make the measurement under the following conditions: […]
measuring temperature range: 25 to 500° C., temperature-raising rate: 10° C./minute, container: air-tightly closed SUS, sample amount: about 0.4 to 0.7 mg, reference: α-alumina having a weight of about 0.6 mg, and atmospheric gas flow rate: dried nitrogen, about 70 mL/minute.
About each of crystal A yielded according to the same process in Example 1, and crystal B yielded according to the same process in Comparative Example 1, a device manufactured by SII Nano Technology Inc., EXTER 6000, was used to measure the DSC thereof under differential scanning calorie analysis conditions described below.
(Differential Scanning Calorie Analysis Conditions)

Row | solubility in 100 g of water ([1]; 25° C.) | solubility in 100 g of water ([1]; 55° C.) | solubility in 100 g of water ([1]; 75° C.) | Endothermic peak [2] | Exothermic peak [2] | solubility in 100 g of water ([1]; 40° C.) | SMILES | thermal stability ([2]; concluded from the DSC endothermic and exothermic peaks, compared with crystal B)
1 | 1.98 g | 2.59 g | 2.86 g | 187 °C | 349 °C |  | NC[C@H](CC(=O)O)c1ccc(Cl)cc1 [Crystal B, (R)-4-amino-3-(4-chlorophenyl)butanoic acid, reference compound] | 
2 | 0.88 g |  | 2.20 g | 203 °C | 386 °C | 1.16 g | NC[C@H](CC(=O)O)c1ccc(Cl)cc1 [Crystal A, (R)-4-amino-3-(4-chlorophenyl)butanoic acid] | far better in thermal stability than crystal B
